This is an account of results in patent US20260335293A1, “USE OF NOVEL COMPOUND FOR TREATING INTRACTABLE DISEASES” (YJ CERAPEUTICS INC., priority 2023, published 2026).

Data set [1] deals with sedation. The data set can be described thus: Sedation as side effect of the drug. The format is in vivo, Sprague-Dawley rats. The conditions noted are these: 100 mg/kg.
The test system of data set [2] is astrocytes (GFAP). The data set can be described thus: Astrocyte activation in spinal cord of SNI model, GFAP immunohistochemistry and Western blot. The format is in vivo, Sprague-Dawley rats. To be noted: L4-5 spinal cord. On the technique in general: A western blot detects proteins with antibodies after separation by electrophoresis.
The subject of data set [3] is urinary disturbances caused by spinal cord injury (bladder function). The data set can be described thus: Urinary function (residual urine volume, UBFS, bladder size and weight) in SCI model. It counts as in vivo, Sprague-Dawley rats. The conditions noted are these: 5 mg/kg i.p. How it is done:
To be used as a central nerve injury animal model, a traumatic spinal cord injury (SCI) model was prepared (FIG. 1A). Specifically, 230 to 250 g of male adult Sprague-Dawley rats were anesthetized by intraperitoneal injection of chloral hydrate (500 mg/kg), and then the back and neck regions were shaved, and the spinal cord under the back and neck regions was exposed without damaging the dura mater, and a laminectomy was performed at T9 to T10 levels. To stabilize the spine, the spinous processes of T8 and T11 were fixed, and the spine was damaged by free-falling a 10 g weight from a height of 25 mm using an NYU impactor onto the back surface of the exposed spinal cord and then the rats were left in a temperature and humidity-controlled chamber overnight while covering the muscles and skin. After surgery, the rats were subcutaneously injected with a supplement solution (5 ml, lactated ringer) and injected with antibiotics (gentamicin, 5 mg/kg, intramuscular injection) once daily for 5 days. The body weight, remaining food, and the weight of water were confirmed and recorded for all animals, and the bladder was emptied twice daily by passive bladder massage until reflex micturition was established. At this time, a Sham group was a group that was subjected to only laminectomy without damage.
In order to confirm the effect of YJ102 (Chemical Formula 1), a compound of the present disclosure, on urinary disturbances caused by spinal cord injury, immediately after preparing the traumatic spinal cord injury (SCI) model (FIG. 1A) prepared in Example 1 above, YJ102 was dissolved in DMSO, methyl pyrrolidinone, and water (1:1.5:1) and administered intraperitoneally at 5 mg/kg, and then intraperitoneally administered at 24-hour intervals for 7 days from the next day. Thereafter, the effect of improving bladder functions was analyzed through a residual urine volume test and a urinary bladder function score (UBFS). […] Specifically, in order to determine the amount of urine remaining in the bladder after spinal cord injury, bladder extrusion was performed twice a day by applying pressure to the central bottom portion of the lower abdomen using the index and middle fingers to empty the bladder, and the expelled urine was collected in a catheter and its volume was recorded. In addition, the UBFS was assessed daily using a 0-4 point UBFS (0=total loss of function (manual bladder extrusion 3 times a day, bloody urine), 1=partial restoration of UBF (manual extrusion 2 times a day, bloody urine), 2=partial restoration of UBF (partial/complete release of sphincter spasm, manual extrusion once a day, persistently bloody urine), 3=high restoration (manual extrusion once a day, no bloody urine), and 4=normal UBF) as in the reference (Zeng et al., Spinal Cord (2017) 55:834-839).

Data set [4] has as its system ZO-1. The data set can be described thus: Tight junction protein ZO-1 in bladder of SCI model, Western blot. It counts as in vivo, Sprague-Dawley rats. To be noted: SCI day 1, Western blot.
In data set [5] the test system is urothelium (TUNEL-positive cells). The data set can be described thus: Urothelial cell apoptosis in SCI model, TUNEL staining. It counts as in vivo, Sprague-Dawley rats. To be noted: day 3 after SCI; vs Vehicle.
Data set [6] concerns UPIII. The data set can be described thus: Urothelial marker UPIII in SCI model, Western blot. The format is in vivo, Sprague-Dawley rats. To be noted: day 3 after SCI.
Data set [7] relates to NGF / proNGF. The data set can be described thus: NGF mRNA and proNGF in bladder tissue of SCI model, RT-PCR and Western blot. The conditions noted are these: bladder tissue after SCI. The format is in vivo, Sprague-Dawley rats. How it is done: In order to confirm the effect of YJ102 (Chemical Formula 1), a compound of the present disclosure, on urinary disturbances caused by spinal cord injury, immediately after preparing the traumatic spinal cord injury (SCI) model (FIG. 1A) prepared in Example 1 above, YJ102 was dissolved in DMSO, methyl pyrrolidinone, and water (1:1.5:1) and administered intraperitoneally at 5 mg/kg, and then intraperitoneally administered at 24-hour intervals for 7 days from the next day. Thereafter, the effect of improving bladder functions was analyzed through a residual urine volume test and a urinary bladder function score (UBFS). At this time, a Vehicle group was administered with the same amount of a solution of DMSO, methyl pyrrolidinone, and water. Specifically, in order to determine the amount of urine remaining in the bladder after spinal cord injury, bladder extrusion was performed twice a day by applying pressure to the central bottom portion of the lower abdomen using the index and middle fingers to empty the bladder, and the expelled urine was collected in a catheter and its volume was recorded. […]

In data set [8] the test system is inflammatory cytokines and chemokines in bladder tissue. The data set can be described thus: Inflammatory factor expression in bladder of SCI model, RT-PCR and Western blot. The conditions noted are these: bladder after SCI. It counts as in vivo, Sprague-Dawley rats. On the procedure: In order to confirm the effect of YJ102 (Chemical Formula 1), a compound of the present disclosure, on urinary disturbances caused by spinal cord injury, immediately after preparing the traumatic spinal cord injury (SCI) model (FIG. 1A) prepared in Example 1 above, YJ102 was dissolved in DMSO, methyl pyrrolidinone, and water (1:1.5:1) and administered intraperitoneally at 5 mg/kg, and then intraperitoneally administered at 24-hour intervals for 7 days from the next day. Thereafter, the effect of improving bladder functions was analyzed through a residual urine volume test and a urinary bladder function score (UBFS). At this time, a Vehicle group was administered with the same amount of a solution of DMSO, methyl pyrrolidinone, and water. Specifically, in order to determine the amount of urine remaining in the bladder after spinal cord injury, bladder extrusion was performed twice a day by applying pressure to the central bottom portion of the lower abdomen using the index and middle fingers to empty the bladder, and the expelled urine was collected in a catheter and its volume was recorded. In addition, the UBFS was assessed daily using a 0-4 point UBFS (0=total loss of function (manual bladder extrusion 3 times a day, bloody urine), 1=partial restoration of UBF (manual extrusion 2 times a day, bloody urine), 2=partial restoration of UBF (partial/complete release of sphincter spasm, manual extrusion once a day, persistently bloody urine), 3=high restoration (manual extrusion once a day, no bloody urine), and 4=normal UBF) as in the reference (Zeng et al., Spinal Cord (2017) 55:834-839).
To confirm the effect of YJ102 on the expression of inflammatory factors in the bladder after spinal cord injury, the expression of inflammatory cytokines and chemokines, COX-2, iNOS, IL-6, IL-1β, MIP-1α, MIP-1β, MIP-2a, and Gro-α in bladder tissue was confirmed by RT-PCR analysis and Western blot analysis using the primers in Table 2 above. In addition, even in the Raw 264.7 cell line, the expression was verified by RT-PCR analysis.

The subject of data set [9] is spleen of psoriasis mouse model. The data set can be described thus: Spleen hypertrophy in IMQ psoriasis model. The format is in vivo, C57BL/6 mouse. To be noted: Day 6, vs Vehicle. On the procedure:
Psoriasis caused by excessive production of skin cells was a chronic skin disease associated with various factors, including autoimmune diseases, and its symptoms included red and thickened skin and abnormally occurring scaling. […] Specifically, the back region of a C57BL/6 mouse (male, 18 to 20 g, 8 weeks) (Daehan Biolink, Eumseong, Korea) was shaved to remove hair, and then applied with IMQ cream (83 mg/day) (5%) for consecutive 5 days from Day 0 to Day 4 to induce psoriasis-like skin inflammation, and a normal control mouse (Sham) was applied with Vaseline cream (FIG. 16A).
In order to confirm the effect of YJ102 (Chemical Formula 1), a compound of the present disclosure, on psoriasis, YJ102 dissolved in DMSO, methyl pyrrolidinone, and water (1:1.5:1) was administered intraperitoneally (5 mg/kg) for a total of 3 days on Day 2, Day 3, and Day 4, and the Vehicle group was administered in the same amount of a solution of DMSO, methyl pyrrolidinone, and water (1:1.5:1) (FIG. 16A). To assess daily skin changes, PASI scores were used for erythema and scaling. The PASI score was evaluated as a severity scale of 0 to 4, in which 0 meant none, 1 meant mild, 2 meant moderate, 3 meant severe, and 4 meant very severe. (PASI Reference: Yashpal Manchanda, Abhishek De, Sudip Das, and Disha Chakraborty. Disease Assessment in Psoriasis. Indian J Dermatol. 2023 May-June; 68 (3): 278-281.) […]

Turning to `CCc1ccc(N(C(=O)COC)c2nc3cc(Cl)ccc3o2)cc1` [YJ102], the sedation entry in [1] is “sedation was not observed”. Also, in [2] (Western blot), the GFAP expression entry is reported as “significantly decreased”. Moreover, in data set [2] (immunohistochemistry), the GFAP expression intensity entry was “significantly decreased”. Also, in data set [3], the bladder size entry is on record as “significantly reduced” and the bladder weight result is given as “significantly reduced”. Further, in data set [3] (vs Veh, from the first day of administration), the residual urine volume entry was “significantly reduced”. Further, the “bladder function restoration analysis using the UBFS (printed as residual urine volume)” value in data set [3] (vs Vehicle, day 3 and day 7 after SCI) is “significantly increased”. Besides, the “reduction in amount of ZO-1” value in data set [4] was “significantly inhibited”. Also, the “number of TUNEL-positive cells in the urothelium” value in data set [5] is on record as “significantly reduced”. For the same compound, the “reduction in level of UPIII (urothelial loss)” value in data set [6] is “inhibited”. For the same compound, in [7], the “NGF mRNA expression” value is recorded as “significantly inhibited” and the proNGF production entry is listed as “significantly inhibited”. In [8], the “expression of COX-2” value is given as “significantly reduced”, the “expression of Gro-α” value is reported as “significantly reduced”, the “expression of IL-1β” value is on record as “significantly reduced” and the “expression of IL-6” value is listed as “significantly reduced”. Moreover, in data set [8], the “expression of MIP-1B” value was “significantly reduced”, the “expression of MIP-1 a” value is reported as “significantly reduced”, the “expression of MIP-2a” value is “significantly reduced” and the “expression of iNOS” value is “significantly reduced”. For the same compound, in data set [9], the “size of the spleen” value is “significantly reduced” and the “weight of the spleen” value is listed as “significantly reduced”.
